The nature of data set [1]: in vitro. Conditions: African green monkey.
Data set [2] deals with SARS CoV. Briefly: in vitro. As to conditions: African green monkey.
The test system of data set [3] is SARS CoV. As to conditions: Vero E6 cells.
Data set [4] concerns SARS CoV. The data set is described as follows: microbe, parasite or virus in culture. Conditions: Severe acute respiratory syndrome coronavirus, Vero C1008, read-out: Anti-SARS CoV IC50.
For data set [5], the system named is Vero E6 cells.

These results are taken from patent publication US8440649B2 (priority 2009, dated 2013).

For orientation: IC50 means the concentration that inhibits the measured activity by half. Usually melting point stands for the temperature of the solid-liquid transition.

On to `COc1cc2c3c(c4cc(OC)c(OC)cc4c2cc1OC)CN1CCCC1C3` (stereo not drawn) [Compound 1], for which the CC50 in data set [1] was 420 nM. For the same molecule, the selectivity ratio in data set [2] came to 23.3. In addition, in data set [3], the “reduction of levels of CPEs caused by SARS CoV infection (in words)” value (“reduction of levels of CPEs caused” for short) is given as “effectively reduced”. The IC50 in data set [4] was determined as 18 nM. In addition, in data set [5], the “cytotoxicity per se (in words)” value was “low cytotoxicity”.

In the case of `COc1cc2c3c(c4cc(OC)c(OC)cc4c2cc1OC)CN1CCCCC1C3` (stereo not drawn) [Compound 11], the “reduction of levels of CPEs caused” value in data set [3] is on record as “effectively reduced”. In data set [5], the “cytotoxicity per se (in words)” value is on record as “low cytotoxicity”.

As to `COc1cc2c3c(c4cc(OC)c(OC)cc4c2cc1OC)C(O)C1CCCCN1C3` (stereo not drawn) [Compound 12], in data set [1], the CC50 was more than 100 nM. Also, the selectivity ratio in data set [2] was more than 7.1. Moreover, the half-maximal inhibitory concentration (IC50) in data set [4] was 14 nM.

In the case of `COc1cc2c3c(c4cc(OC)c(OC)cc4c2cc1OC)C[N+]1([O-])CCCCC1C3` (stereo not drawn) [Compound 18], in data set [2], the selectivity ratio is more than 56. Further, the IC50 in data set [4] was less than 100 nM.

In the case of `COc1cc2c3cc(OC)c(OC)cc3c3c[n+]4c(cc3c2cc1OC)CCCC4.[Br-]` [Compound 19], the “reduction of levels of CPEs caused” value in data set [3] is on record as “effectively reduced”. Besides, the “cytotoxicity per se (in words)” value in data set [5] is reported as “low cytotoxicity”.

Take `COc1ccc2c3c(c4cc(OC)c(OC)cc4c2c1)CN1CCCC1C3OC(C)=O` (stereo not drawn) [Compound 32]: the melting point was 196 to 198 °C.
